In US9113629B2, “4-amino-6-(4-substituted-phenyl)-picolinates and 6-amino-2-(4-substituted-phenyl)-pyrimidine-4-carboxylates and their use as herbicides” (DOW AGROSCIENCES LLC, priority 2013, dated 2015):
Read-outs that look alike come from different tables or passages of the source.

What was measured:
Experiment in all cases: Post-emergent Test III, herbicidal activity in wheat and barley
Assay type in all cases: in vivo
[1] = test system: VERPE: bird's-eye speedwell (veronica persica); details: for GR50 VERPE: dose for 50 percent growth reduction; for GR50 VERPE / GR80 VERPE: probit analysis; for GR80 VERPE: dose for 80 percent growth reduction; for pest or weed control at 35 g/ha / pest or weed control at 70 g/ha / pest or weed control at 140 g/ha: Veronica persica, post-emergence, 504 h; for pest or weed control at 35 g/ha: 35 g ai/ha; for pest or weed control at 70 g/ha: 70 g ai/ha; for pest or weed control at 140 g/ha: 140 g ai/ha
How it was run: (§1)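 GR20, GR50, GR80 and GR90 come from probit analysis of visual injury scores (0 = none, 100 = complete kill) taken 21 d after treatment. Foliar application was by track sprayer delivering 187 L/ha at five rates, from high down to 1/16×, onto greenhouse plants at the 2–3 leaf stage, with solvent-blank controls.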

[2] = test system: PAPRH: common poppy (Papaver rhoeas); details: Table 8, 21 d; for pest or weed control at 35 g/ha / pest or weed control at 70 g/ha / pest or weed control at 140 g/ha: Papaver rhoeas, post-emergence, 504 h, post-emergent, read-out: Visual Growth Reduction (%) 21 Days After Application PAPRH; for pest or weed control at 35 g/ha: 35 g ai/ha; for pest or weed control at 70 g/ha: 70 g ai/ha; for GR50 PAPRH: dose for 50 percent growth reduction; for GR50 PAPRH / GR80 PAPRH: probit analysis; for GR80 PAPRH: dose for 80 percent growth reduction; for pest or weed control at 140 g/ha: 140 g ai/ha
How it was run: as §1

[3] = test system: LAMSS; details: for GR50 LAMSS / GR80 LAMSS: probit analysis; for pest or weed control at 35 g/ha / pest or weed control at 70 g/ha / pest or weed control at 140 g/ha: post-emergence, 504 h, read-out: Visual Growth Reduction (%) 21 Days After Application LAMSS; for pest or weed control at 35 g/ha: 35 g ai/ha; for pest or weed control at 70 g/ha: 70 g ai/ha; for pest or weed control at 140 g/ha: 140 g ai/ha
How it was run: as §1

[4] = test system: ALOMY: black-grass (Alopecurus myosuroides)
How it was run: as §1

[5] = test system: BROTE: downy brome (Bromus tectorum)
How it was run: as §1

[6] = Table 8, post-emergent, 21 d, read-out: Visual Growth Reduction (%) 21 Days After Application VERPE
[7] = Table 8, dose for 50 percent growth reduction, 21 d
[8] = Table 8, dose for 80 percent growth reduction, 21 d
[9] = 21 days after application, read-out: Visual Gorowth Reduction (%) 21 days After Application VERPE
[10] = probit analysis, dose for growth reduction of 50 percent, 21 days after application
[11] = probit analysis, dose for growth reduction of 80 percent, 21 days after application

| SMILES | GR50 VERPE ([1]; Table 8, 21 d) | GR80 VERPE ([1]; Table 8, 21 d) | pest or weed control at 35 g/ha [1, 6] | pest or weed control at 70 g/ha [1, 6] | pest or weed control at 35 g/ha [2] | pest or weed control at 70 g/ha [2] | GR50 PAPRH [2] | GR80 PAPRH [2] | GR50 LAMSS [3, 7] | GR80 LAMSS [3, 8] | pest or weed control at 35 g/ha ([3]; Table 8, post-emergent, 21 d) | pest or weed control at 70 g/ha ([3]; Table 8, post-emergent, 21 d) | further results |
| --- | --- | --- | --- | --- | --- | --- | --- | --- | --- | --- | --- | --- | --- |
| Nc1cc(-c2cc(F)c(Br)cc2F)nc(C(=O)O)c1Cl [Compound 3] | 34 g ai/ha | 126 g ai/ha | 45 to 59% | 60 to 74% | 95 to 100% | 95 to 100% | 1 g ai/ha | 1 g ai/ha | 1 g ai/ha | 1 g ai/ha | 95 to 100% | 95 to 100% | – |
| COC(=O)c1nc(-c2ccc(I)c(F)c2)nc(N)c1OC [Compound 27, Methyl 6-amino-2-(3-fluoro-4-iodophenyl)-5-methoxypyrimidine-4-carboxylate] | 5 g ai/ha | 42 g ai/ha | 75 to 84% | 85 to 94% | 95 to 100% | 95 to 100% | 1 g ai/ha | 1 g ai/ha | 1 g ai/ha | 14 g ai/ha | 85 to 94% | 85 to 94% | – |
| COc1c(N)nc(-c2ccc(I)c(F)c2)nc1C(=O)O [Compound 37, 6-Amino-2-(3-fluoro-4-iodophenyl)-5-methoxypyrimidine-4-carboxylic acid] | 15 g ai/ha | 66 g ai/ha | 60 to 74% | 75 to 84% | 95 to 100% | 95 to 100% | 1 g ai/ha | 1 g ai/ha | 1 g ai/ha | 11 g ai/ha | 85 to 94% | 95 to 100% | – |
| Nc1c(Cl)c(C(=O)O)nc(-c2ccc(Br)c(F)c2)c1Cl [Compound 43, 4-Amino-6-(4-bromo-3-fluorophenyl)-3,5-dichloropicolinic acid] | 33 g ai/ha | >140 g ai/ha | 30 to 44% | 75 to 84% | 95 to 100% | 95 to 100% | 1 g ai/ha | 1 g ai/ha | 1 g ai/ha | 10 g ai/ha | 85 to 94% | 85 to 94% | – |
| Nc1c(F)c(-c2cc(F)c(I)cc2F)nc(C(=O)O)c1Cl [Compound 69] | – | – | – | – | – | – | – | – | – | – | – | – | pest or weed control at 35 g/ha [1, 9]: 85 to 94%; pest or weed control at 70 g/ha [1, 9]: 95 to 100%; GR50 VERPE ([1]; 21 days after application): 1 g ai/ha; GR80 VERPE ([1]; 21 days after application): 4 g ai/ha |
| COC(=O)c1nc(-c2ccc(I)c(F)c2)c(C)c(N)c1Cl [Compound 79, Methyl 4-amino-3-chloro-6-(3-fluoro-4-iodophenyl)-5-methylpicolinate] | 2 g ai/ha | 37 g ai/ha | 75 to 84% | 85 to 94% | 95 to 100% | 95 to 100% | 1 g ai/ha | 1 g ai/ha | 27 g ai/ha | 72 g ai/ha | 60 to 74% | 60 to 74% | – |
| C=Cc1c(C(=O)O)nc(-c2ccc(C(F)(F)F)c(F)c2)c(F)c1N [Compound 86] | – | – | – | – | – | – | – | – | – | – | – | – | pest or weed control at 35 g/ha [1, 9]: 85 to 94%; pest or weed control at 70 g/ha [1, 9]: 85 to 94%; GR50 VERPE ([1]; 21 days after application): 15 g ai/ha; GR80 VERPE ([1]; 21 days after application): 34 g ai/ha |
| COC(=O)c1nc(-c2ccc(Br)c(F)c2F)c(F)c(N)c1Cl [Compound 109, methyl 4-amino-6-(4-bromo-2,3-difluorophenyl)-3-chloro-5-fluoropicolinate] | – | – | – | – | – | – | – | – | – | – | – | – | pest or weed control at 35 g/ha ([4]; Alopecurus myosuroides, post-emergence, 504 h, 35 g ai/ha, read-out: Visual Growth Reduction (%) 21 Days After Application ALOMY): 60 to 74%; pest or weed control at 70 g/ha ([4]; Alopecurus myosuroides, post-emergence, 504 h, 70 g ai/ha, read-out: Visual Growth Reduction (%) 21 Days After Application ALOMY): 75 to 84%; GR50 ALOMY [4, 10]: 22 g ai/ha; GR80 ALOMY [4, 11]: 88 g ai/ha; pest or weed control at 35 g/ha ([5]; Bromus tectorum, post-emergence, 504 h, 35 g ai/ha, read-out: Visual Growth Reduction (%) 21 Days After Application BROTE): 75 to 84%; pest or weed control at 70 g/ha ([5]; Bromus tectorum, post-emergence, 504 h, 70 g ai/ha, read-out: Visual Growth Reduction (%) 21 Days After Application BROTE): 85 to 94%; GR50 BROTE [5, 10]: 14 g ai/ha; GR80 BROTE [5, 11]: 41 g ai/ha; pest or weed control at 35 g/ha [3]: 95 to 100%; pest or weed control at 70 g/ha [3]: 95 to 100%; GR50 LAMSS ([3]; dose for growth reduction of 50 percent, 21 days after application): 1 g ai/ha; GR80 LAMSS ([3]; dose for growth reduction of 80 percent, 21 days after application): 1 g ai/ha |
| Nc1cc(-c2ccc(I)cc2F)nc(C(=O)O)c1Cl [Compound 124] | 20 g ai/ha | 39 g ai/ha | 75 to 84% | 85 to 94% | 95 to 100% | 95 to 100% | 1 g ai/ha | 1 g ai/ha | 1 g ai/ha | 1 g ai/ha | 95 to 100% | 95 to 100% | – |
| COC(=O)c1nc(-c2ccc(C#N)c(F)c2)c(F)c(N)c1Cl [Compound 135, methyl 4-amino-3-chloro-6-(4-cyano-3-fluorophenyl)-5-fluoropicolinate] | 24 g ai/ha | 78 g ai/ha | 60 to 74% | 75 to 84% | 85 to 94% | 85 to 94% | 1 g ai/ha | 1 g ai/ha | 1 g ai/ha | 19 g ai/ha | 75 to 84% | 85 to 94% | pest or weed control at 140 g/ha [1, 6]: 85 to 94%; pest or weed control at 140 g/ha [2]: 95 to 100%; pest or weed control at 140 g/ha ([3]; Table 8, post-emergent, 21 d): 85 to 94% |
| Nc1c(Cl)c(C(=O)O)nc(-c2ccc(I)c(F)c2)c1Cl [Compound 145, 4-Amino-3,5-dichloro-6-(3-fluoro-4-iodophenyl)picolinic acid] | 1 g ai/ha | 10 g ai/ha | 85 to 94% | 85 to 94% | 95 to 100% | 95 to 100% | 1 g ai/ha | 1 g ai/ha | 4 g ai/ha | 13 g ai/ha | 95 to 100% | 95 to 100% | pest or weed control at 140 g/ha [1, 6]: 95 to 100%; pest or weed control at 140 g/ha [2]: 95 to 100%; pest or weed control at 140 g/ha ([3]; Table 8, post-emergent, 21 d): 95 to 100% |
| COC(=O)c1nc(-c2ccc(Br)c(F)c2)nc(N)c1OC [Compound 171, Methyl 6-amino-2-(4-bromo-3-fluorophenyl)-5-methoxypyrimidine-4-carboxylate] | 4 g ai/ha | 27 g ai/ha | 85 to 94% | 85 to 94% | 95 to 100% | 95 to 100% | 1 g ai/ha | 1 g ai/ha | 2 g ai/ha | 11 g ai/ha | 85 to 94% | 95 to 100% | – |
